As usually defined, the IC50 is the concentration needed to halve the response being measured. As a reminder, the EC50 is the concentration needed to bring the measured effect to its halfway point. Low readings indicate higher potency in that assay, high ones lower potency in that assay.

For 26 molecules, IC50 and EC50 results are on record in ChEMBL document CHEMBL1149526, “Synthesis and SAR of selective benzothiophene, benzofuran, and indole-based peroxisome proliferator-activated receptor delta agonists” (Bioorg Med Chem Lett, 2007).

Test [1] addresses T1, Peroxisome proliferator-activated receptor alpha (Homo sapiens, UniProt Q07869).
T1 sequence (Q07869 whole entry): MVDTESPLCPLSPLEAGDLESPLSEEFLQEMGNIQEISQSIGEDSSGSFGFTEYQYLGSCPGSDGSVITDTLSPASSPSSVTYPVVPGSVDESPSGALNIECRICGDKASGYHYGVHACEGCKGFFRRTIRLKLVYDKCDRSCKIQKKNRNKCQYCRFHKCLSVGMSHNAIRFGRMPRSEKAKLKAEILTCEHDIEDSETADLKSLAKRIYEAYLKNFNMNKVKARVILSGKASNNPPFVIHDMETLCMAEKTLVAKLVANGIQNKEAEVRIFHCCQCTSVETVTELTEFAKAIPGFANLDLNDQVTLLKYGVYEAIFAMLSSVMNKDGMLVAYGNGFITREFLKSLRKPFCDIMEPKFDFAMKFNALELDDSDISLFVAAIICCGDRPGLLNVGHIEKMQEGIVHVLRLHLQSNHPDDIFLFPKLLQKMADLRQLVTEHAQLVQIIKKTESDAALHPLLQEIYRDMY

The target of test [2] is T2, Peroxisome proliferator-activated receptor delta (Homo sapiens, UniProt Q03181).
T2 sequence (Q03181 whole entry): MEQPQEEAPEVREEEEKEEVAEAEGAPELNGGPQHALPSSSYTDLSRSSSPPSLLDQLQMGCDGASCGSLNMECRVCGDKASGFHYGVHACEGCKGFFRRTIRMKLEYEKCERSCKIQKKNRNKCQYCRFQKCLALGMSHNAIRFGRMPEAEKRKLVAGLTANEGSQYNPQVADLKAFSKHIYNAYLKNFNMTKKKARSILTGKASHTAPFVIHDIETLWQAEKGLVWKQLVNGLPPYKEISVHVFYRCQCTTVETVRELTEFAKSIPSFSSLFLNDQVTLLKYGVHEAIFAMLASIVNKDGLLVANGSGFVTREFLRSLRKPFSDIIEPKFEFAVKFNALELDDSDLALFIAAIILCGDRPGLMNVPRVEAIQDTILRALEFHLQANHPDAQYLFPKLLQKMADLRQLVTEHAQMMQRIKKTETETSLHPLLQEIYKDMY
The class given is functional, cell-based, HepG2.

For test [3], the target named is T2, Peroxisome proliferator-activated receptor delta.

Some results are limits rather than exact numbers.

With `O=C(O)Cn1ccc2cc(OCc3ccccc3COc3ccc(C(F)(F)F)cc3)ccc21`, the results for the half-maximal inhibitory concentration (IC50) in test [1] and in test [3] were greater than 10000 nM and 734 nM, respectively. In addition, it took 3080 nM to reach a half-maximal effect in test [2] (EC50).

Consider `O=C(O)Cn1ccc2cc(OCc3cccc(COc4ccc(C(F)(F)F)cc4)c3)ccc21`, for which the values for the IC50 in test [1] and in test [3] were 179 nM and 13 nM, respectively. In test [2], this molecule came in with an EC50 of 254 nM.

`Cc1nc(C(F)(F)F)sc1CSc1ccc2c(ccn2CC(=O)O)c1`: the IC50 in test [1] is 172 nM; in test [3] it was 2.8 nM. The molecule further returned an EC50 in test [2] of 4 nM.

As to `Cc1nc(-c2ccc(C(F)(F)F)cc2)sc1COc1ccc2c(CC(=O)O)csc2c1`, the IC50 in test [1] amounted to 482 nM.

As for `O=C(O)Cc1csc2cc(OCc3cc(-c4ccc(Cl)cc4)on3)ccc12`, the IC50 in test [1] was determined as 3820 nM; in test [3], 7.7 nM. The same molecule showed an EC50 in test [2] of 226 nM.

As to `O=C(O)Cc1coc2cc(OCc3cc(-c4ccc(C(F)(F)F)cc4)on3)ccc12`, the IC50 worked out at 1420 nM in test [1] and 25 nM in test [3]. This molecule yielded an EC50 in test [2] of 1610 nM.

Regarding `Cc1nc(-c2ccc(C(F)(F)F)cc2)sc1COc1cc(Cl)c2c(CC(=O)O)csc2c1`, the values for the IC50 in test [1] and in test [3] were 1040 nM and 58 nM, respectively. For the same molecule, in test [2], the response was half-maximal at 227 nM (EC50).

As for `Cc1cc2c(CC(=O)O)csc2cc1OCc1cc(-c2ccc(Cl)cc2)on1`, the IC50 in test [1] was found to be 5810 nM; in test [3], 37 nM. For the same molecule, the response in test [2] was half-maximal at 656 nM (EC50).

With `O=C(O)Cc1csc2cc(OCc3cc(-c4ccc(Cl)cc4)on3)cc(Cl)c12`, the results for the IC50 in test [1] and in test [3] were 3840 nM and 375 nM, respectively. The molecule further yielded an EC50 in test [2] of 6360 nM.

Regarding `Cc1cc(OCc2cc(-c3ccc(C(F)(F)F)cc3)on2)cc2scc(CC(=O)O)c12`, the IC50 in test [1] is 1470 nM; in test [3], 37 nM. In test [2], this molecule returned an EC50 of 561 nM.

As for `O=C(O)Cc1csc2cc(OCc3ccccc3COc3ccc(C(F)(F)F)cc3)ccc12`, the IC50 in test [1] is 7860 nM; in test [3], 244 nM. This molecule also displayed an EC50 in test [2] of 2230 nM.

For the molecule `Cc1cc2c(CC(=O)O)csc2cc1OCc1ccccc1COc1ccc(C(F)(F)F)cc1`, 4680 nM corresponded to half-maximal inhibition in test [1] (IC50). In other words, the single-digit micromolar range.

For `O=C(O)Cc1csc2cc(OCc3cccc(COc4ccc(C(F)(F)F)cc4)c3)ccc12`, in test [1], the IC50 is 963 nM.

Regarding `O=C(O)Cc1csc2cc(OCc3ccc(COc4ccc(C(F)(F)F)cc4)cc3)ccc12`, the 50% inhibitory concentration (IC50) in test [1] worked out at 229 nM.

With `O=C(O)Cc1coc2cc(OCc3cccc(COc4ccc(C(F)(F)F)cc4)c3)ccc12`, it took 2500 nM to reach half-maximal inhibition in test [1] (IC50).

For `O=C(O)Cc1coc2cc(OCc3ccc(COc4ccc(C(F)(F)F)cc4)cc3)ccc12`, the IC50 in test [1] amounted to 2380 nM; in test [3], 81 nM. For the same molecule, the EC50 in test [2] came to 3440 nM.

For `Cc1nc(C(F)(F)F)sc1COc1ccc2c(ccn2CC(=O)O)c1`, the IC50 was determined as 550 nM in test [1] and 6.8 nM in test [3]. In test [2], this molecule showed an EC50 of 223 nM.

As for `Cc1nc(-c2ccc(C(F)(F)F)cc2)sc1COc1ccc2c(CC(=O)O)coc2c1`, the IC50 came to 679 nM in test [1] and 14 nM in test [3]. A half-maximal effect in test [2] (EC50) was put at 243 nM.

Regarding `O=C(O)Cc1coc2cc(OCc3cc(-c4ccc(Cl)cc4)on3)ccc12`, the IC50 in test [1] was determined as 2380 nM; in test [3], 81 nM. Further, the 50% effective concentration (EC50) in test [2] came to 323 nM.

For `Cc1cc2c(CC(=O)O)csc2cc1OCc1sc(-c2ccc(C(F)(F)F)cc2)nc1C`, the IC50 came out at 683 nM in test [1] and 237 nM in test [3].

For `Cc1cc(OCc2cc(-c3ccc(Cl)cc3)on2)cc2scc(CC(=O)O)c12`, the figures for the IC50 in test [1] and in test [3] were 311 nM and 23 nM, respectively. In addition, a half-maximal effect in test [2] (EC50) was put at 638 nM.

In the case of `O=C(O)Cc1csc2cc(OCc3cc(-c4ccc(C(F)(F)F)cc4)on3)ccc12`, the results for the IC50 in test [1] and in test [3] were 261 nM and 11 nM, respectively. Besides, it took 305 nM to reach a half-maximal effect in test [2] (EC50).

Regarding `O=C(O)Cn1ccc2cc(OCc3ccc(Oc4ccc(C(F)(F)F)cc4)cc3)ccc21`, the figures for the IC50 in test [1] and in test [3] were 562 nM and 91 nM, respectively. In test [2], this molecule returned an EC50 of 2810 nM.

As for `O=C(O)Cc1csc2cc(OCc3cc(-c4ccc(C(F)(F)F)cc4)on3)cc(Cl)c12`, the IC50 is 1350 nM in test [1] and 97 nM in test [3]. This molecule also returned an EC50 in test [2] of 2360 nM.

Consider `O=C(O)Cc1coc2cc(OCc3ccccc3COc3ccc(C(F)(F)F)cc3)ccc12`, for which the results for the IC50 in test [1] and in test [3] were greater than 10000 nM and 662 nM, respectively. This molecule gave an EC50 in test [2] of 3120 nM.

With `O=C(O)Cn1ccc2cc(OCc3cc(-c4ccc(C(F)(F)F)cc4)on3)ccc21`, the IC50 turned out to be 835 nM in test [1] and 31 nM in test [3]. Further, the EC50 in test [2] was 1390 nM.
